In patent US11730810B2, “Composition comprising an antigen and a substituted imidazo[1,2-a]pyrimidine for enhancing human immune response” (Children's Medical Center Corporation, priority 2017, dated 2023):

What was measured:
THP1-Lucia cells = experiment: NF-kB-induced Luminescence Assay in THP1-Lucia cells; format: cell-based, human; conditions: in comparison to positive control R848, N=4
Description: (FIG. 5A) Human adult PBMCs were stimulated for 18 hours with the positive control compound R848 or compound 037 and its analogs at 33 μM. Production human TNF was measured in cell-free supernatants by ELISA (N=5). […] Results are shown as the median, the 25th and 75th percentiles (boxes) and the 5th and 95th percentiles (whiskers). **p<0.01 determined by repeated measure one-way ANOVA with Dunnett's multiple comparison test on log-transformed data and comparing each compound with DMSO (control condition).
THP-1 Cell Line and Culture Conditions. The THP1-Lucia™ cell line was obtained from Invivogen (San Diego, Calif.). THP1-Lucia cells, which are human monocytic cells derived from the blood of a child with leukemia, contain an NF-kB-inducible Luc reporter construct. This allows NF-kB activation to be measured by quantifying the luminescence from the secreted luciferase enzyme. THP1-Lucia cells were cultured in RPMI 1640 supplemented with 10% non-heat inactivated fetal bovine serum (FBS), 10 mM HEPES, 1.0 mM sodium pyruvate, 50 ug/ml Pen-Strep, and 100 ug/mL Normocin™. Once cultured, the cells were stored in a 37° C. incubator with 5% CO2 and a humidified atmosphere. […]
NF-kB-induced Luminescence Assay. […] Immediately after adding the substrate, the luminescence was read using a PerkinElmer Envision plate reader.

human adult PBMCs [1] = experiment: 9-plex multiplex cytokine assay after stimulation of adult PBMCs; format: cell-based; conditions: 0.1 μM-33 μM, 18 hours, 10% autologous plasma, N=4; compared with R848
Description: Shown is a 9-plex multiplex cytokine assay after stimulation of adult peripheral blood mononuclear cells (PBMCs) with compound 037 or R848 at four different concentrations (0.1 μM-33 μM). Radar plots of immune polarizing cytokine production from human adult PBMCs stimulated for 18 hours in 10% autologous plasma, represented as fold-change over RPMI unstimulated control (N=4).
(§1) ELISAs and Multiplex-Analyte Assays. Supernatants derived from human PBMCs and DC stimulations were assayed by ELISA for TNF (ThermoFisher Scientific; Waltham, Mass., USA). Cytokine and chemokine expression profiles (e.g., IFNγ, IL-10, IL-12 (p70), IL-1β, IL-6, IL-8, MIP-1α/CCL3, TNF and GM-CSF) in cell culture supernatants were measured using a customized 9-plex Milliplex® Human Th17 Magnetic Bead Panel according to the manufacturer's instructions (Millipore, Chicago, Ill., USA). Assays were read and analyzed on the Luminex® 100/200™ System and xPOTENT® software (Luminex, Austin, Tex.). A minimum threshold was set at the minimum detectable concentration for each individual assay, defined as three standard deviations above the mean background.

[2] = test system: Human adult and elderly PBMCs; experiment: Stimulation of adult and elderly PBMCs, TNF and IL-1β by ELISA; format: cell-based
Description: (FIG. 2A) Human adult (top) and elderly (bottom) PBMCs stimulated for 18 hours with the TLR7/8 agonist R848 and 24 confirmed hit compounds from TNF AlphaLISA screen. TNF (left panels) and IL-1β (right panels) were assessed in cell-free supernatants by ELISA. Data are shown as median and interquartile range of N=5.
as §1
In vitro PBMC stimulation. PBMCs were isolated from blood using a Ficoll density gradient. PBMCs either used fresh or stored at 5×10^7 cells per vial in 1 mL RPMI containing 20% autologous plasma and 10% DMSO at −80° C. until use. […]

[3] = test system: primary human blood mononuclear cells (PBMC); experiment: TNF AlphaLISA screen on primary human PBMCs; format: cell-based; conditions: hit = robust Z score >2 in both duplicates and in at least 2 of 3 donors
Description: To identify immunomodulators/adjuvants that robustly activate human immune cells, ˜200,000 small molecules were tested against THP1 NF-κB reporter cells in a screen. As there is evidence that cell culture lines such as THP-1 cells may not model responses of natural primary human leukocytes, smaller-scale novel high throughput screening methodology was also employed, in which 9,000 commercially available compounds (focusing on small molecule library plates that had relatively high # of hits form the THP-1 screen) were screened using primary human blood mononuclear cells (PBMC) from three different adult human donors (TNFαLISA Assay) (FIGS. 1A-1C).
TNF AlphaLISA screen was comprised of three parts: 1) human peripheral blood collection and PBMC isolation—human adult peripheral blood was collected with written consent. PBMCs were isolated from the blood using Ficoll density gradient. […]
Based on antibody-coated fluorometric excitation/emission beads, the Alpha technology (PerkinElmer) enables the detection and screening of target molecules, in this case TNFα, in a no-wash, highly sensitive, quantitative assay compatible with high throughput screening.
TNFαLISA Assay. […] Viability was assessed by trypan blue staining and cells were then resuspended to 6.67×10^5 viable cells/mL in DMEM with 10% autologous plasma. […]

mouse splenocytes = experiment: Splenocyte in vitro stimulation, murine IL-6 by ELISA; format: cell-based, C57BL/6 mice; conditions: 33 μM, 18 hours
human adult PBMCs [4] = experiment: In vitro PBMC stimulation, TNF production by ELISA (Table 1); format: cell-based; conditions: 18 hours
Description: (§2) Human adult PBMCs were stimulated for 18 hours with compound 037 and its analogs at 33 μM. Production of human TNF was assessed in cell-free supernatants by ELISA. Results are shown as the median, the 25th and 75th percentiles (boxes) and the 5th and 95th percentiles (whiskers) and expressed as percentage TNF production (TNF %) as compared to R848 (FIG. 6A) or TNF concentration in ng/ml (FIG. 6B) (N=3-5). **p<0.01 determined by repeated measure one-way ANOVA with Dunnett's multiple comparison test on log-transformed data and comparing each compound with DMSO (control condition).
as §2, with “7A)” for “6A)”, “7B) (N=5). Analogs are ranked left to right by TNF % (compound 037 on the far left). Compound 037 analogs have been classified in the following categories according to TNF %: high activity—class A: TNF %>15%; medium activity—class B: 1%<TNF %≤15%; low activity—class C: TNF %≤1%.” for “6B) (N=3-5).”
Table 1 provides the activity of exemplary compounds on stimulating TNF production in PBMCs as compared to the benchmark compound R848. Specifically, TNF production was measured by ELISA after stimulation of adult PBMCs with compound 037 analog family or the compound R848 at 33 μM for 18 hours. […]
ELISAs and Multiplex-Analyte Assays. […] Cytokine and chemokine expression profiles (e.g., IFNγ, IL-10, IL-12 (p70), IL-1β, IL-6, IL-8, MIP-1α/CCL3, TNF and GM-CSF) in cell culture supernatants were measured using a customized 9-plex Milliplex® Human Th17 Magnetic Bead Panel according to the manufacturer's instructions (Millipore, Chicago, Ill., USA). […]

## CCC(C(=O)Nc1cc(-c2cn3cccnc3n2)ccc1C)c1ccccc1 (stereo not drawn) [Compound 37]
THP1-Lucia cells
  NF-κB-driven expression of luciferase: little activity
Human adult PBMCs [1]
  cytokine response (9-plex), fold-change over RPMI unstimulated control: broad concentration-dependent cytokine response
[2]; adult and elderly PBMCs stimulated for 18 hours, N=5
  induction of TNF and IL-1β: induce TNF and IL-1β
[2]; adult and elderly PBMCs, 18 hours
  potency rank as inducer of innate immune cytokines among 24 confirmed hits: most potent inducers of innate immune cytokines
[3]
  hit in PBMC TNFαLISA screen: identified

## Cc1cnc2nc(-c3ccc(C)c(NC(=O)c4ccccc4C(F)(F)F)c3)cn2c1 [FRF-02-144-3, N-(2-Methyl-5-(6-methylimidazo[1,2-a]pyrimidin-2-yl)phenyl)-2-(trifluoromethyl)benzamide]
Mouse splenocytes
  activation of mouse splenocytes (murine IL-6) and human PBMCs (TNF): activates both human PBMCs and mouse splenocytes

## Cc1ccc(-c2cn3cc(F)cnc3n2)cc1NC(=O)C(c1ccccc1)C(C)C (stereo not drawn) [FRF-03-082, N-(5-(6-Fluoroimidazo[1,2-a]pyrimidin-2-yl)-2-methylphenyl)-3-methyl-2-phenylbutanamide]
Human adult PBMCs [4]; 33 μM, ELISA, median of N=3-5, no unit in table (FIGS. 6B/7B express TNF concentration in ng/ml)
  TNF (Median): 1.008
Human adult PBMCs [4]; classified according to TNF % vs R848, 33 μM
  Activity class: A (high activity—class A: TNF % >15%)
Human adult PBMCs [4]; median percentage TNF production as compared to R848, 33 μM
  TNF % (Median): 41.65%
